# In patent publication US5798350A, “Dopamine receptor ligands” (Allelix Biopharmaceuticals, Inc., priority 1996, dated 1998):
# Target: T1, human D4 receptor (D4.2 sub-type) (Homo sapiens, UniProt P21917, DEL265-296)
# T1 construct: expressed in transfected cells; host or cells: HEK 298 (human embryonic kidney) cells, [sic]; homogenate of stably transfected cells
# T1 sequence (P21917 with tags, fused parts or gaps DEL265-296): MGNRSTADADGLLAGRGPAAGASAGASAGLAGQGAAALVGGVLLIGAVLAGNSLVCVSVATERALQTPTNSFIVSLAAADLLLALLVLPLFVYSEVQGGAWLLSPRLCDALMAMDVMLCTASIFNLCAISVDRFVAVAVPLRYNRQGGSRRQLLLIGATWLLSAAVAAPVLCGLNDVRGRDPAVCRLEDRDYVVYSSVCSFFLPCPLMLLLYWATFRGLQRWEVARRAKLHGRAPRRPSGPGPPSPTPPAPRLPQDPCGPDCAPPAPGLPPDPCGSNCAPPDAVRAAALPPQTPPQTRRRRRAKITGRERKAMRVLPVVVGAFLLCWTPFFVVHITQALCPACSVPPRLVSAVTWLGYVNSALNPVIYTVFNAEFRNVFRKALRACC
# Assay: D4 receptor binding, displacement of 3H-spiperone
# Conditions: compared with clozapine
# Description: (§1) The potency of the test compound to reduce ^3 H-spiperone binding directly correlated to its binding affinity for the receptor.
# The cells were then centrifuged in a Sorval centrifuge for 10 minutes, 5000 rpm (GS3 rotor) and the pellets quickly frozen in liquid nitrogen and stored at -80° C. until used in binding assay. When used in the assay, cells were thawed on ice for 20 minutes and then 10 mL of incubation buffer (50 mM Tris, 1 mM EDTA, 4 mM MgCl2, 5 mM KCl, 1.5 mM CaCl2, 120 mM NaCl, pH7.4) was added. […] Concentration of receptor protein was determined using the Pierce BCA assay.
# (§2) Total Spiperone Binding Assay
# (§3) The tubes were vortexed and incubated at room temperature for 90 minutes. The binding reaction was stopped by filtering using a Brandell Cell Harvester. The samples were filtered under vacuum over glass fibre filters (Whatman GF/B) presoaked for 2 hours in 0.3% polyethyleneimine (PEI) in 50 mM Tris buffer (pH7.4). The filters were then washed 3 times with 5 mL ice cold 50 mM Tris buffer (pH7.4). Individual filter disks were put in scintillation vials (Biovials, Bechman). Ready Protein Plus liquid scintillant (5 mL, Beckman) was added and the vials counted by liquid scintillation spectrophotometry (Beckman LSC 6500) after equilibrating for three hours at room temperature to determine total binding (BT).
# Non-Specific Binding Assay for D4
# The tubes were vortexed and incubated at room temperature for 90 minutes at which time the binding reaction was stopped by filtering. The filters were washed and counted using the same procedure as in the total binding assay described above to give the non-specific binding value (NSB).
# (§4) Displacement Binding Assay
# (§5) The incubation was started by the addition to 12×75 mm polypropylene tubes 500 μl (50 μg protein) membrane homogenate to a solution of 400 μl incubation buffer, 100 μl (0.25 final conc.) ^3 H-spiperone (90Ci/mmol, Amersham, diluted in borosilicate glass vial to) and […] of test compound that was prepared from 1 mM stock dissolved in DMSO and stored at -20° C. in polypropylene cryogenic storage vials until dilution in incubation buffer in borosilicate glass vials. The tubes were vortexed and incubated at room temperature for 90 minutes at which time the binding reaction was stopped by filtering. The filters were washed and counted using the same procedure as in the total binding assay described above to give the displacement binding value (BD).
# IC50 was determined from an inhibition response curve, logit-log plot of %B/BO vs concentration of test compound.
# (§6) Ki was calculated by the Cheng and Prustoff transformation: […]
# (§7) where [L] is the concentration of ^3 H-spiperone used in the assay and KD is the to dissociation constant of ^3 H-spiperone determined independently under the same binding conditions.
D4 affinity,SMILES,D4 affinity and selectivity
better D4 affinity than clozapine,"COc1ccc2c(c1)C(N1CCN(Cc3ccc4c(c3)OCO4)CC1)=Nc1ccccc1N2 [2-methoxy-11-(4-piperonyl-1-piperazinyl)-5H-dibenzo[b,e][1,4]diazepine]",–
better D4 affinity than clozapine,"O=[N+]([O-])c1ccc2c(c1)C=C(N1CCN(Cc3ccc4c(c3)OCO4)CC1)c1ccccc1S2 [2-nitro-10-(4-piperonyl-1-piperazinyl)dibenzo[b,f]thiepine]",better D4 affinity and selectivity than clozapine

# Same assay, conditions: compared with corresponding 4-methyl piperazine compound
row,SMILES,D4 affinity and selectivity
1,"c1ccc2c(c1)N=C(N1CCN(Cc3ccc4c(c3)OCO4)CC1)c1ccccc1N2 [11-(4-piperonyl)-1-piperazinyl-5H-dibenzo[b,e][1,4]diazepine]",better D4 affinity and selectivity than the corresponding 4-methyl piperazine compound
2,"COc1ccc2c(c1)C(N1CCN(Cc3ccc4c(c3)OCO4)CC1)=Nc1ccccc1N2 [2-methoxy-11-(4-piperonyl-1-piperazinyl)-5H-dibenzo[b,e][1,4]diazepine]",better D4 affinity and selectivity than the corresponding 4-methyl piperazine compound
3,"Clc1ccc2c(c1)N=C(N1CCN(Cc3ccc4c(c3)OCO4)CC1)c1ccccc1S2 [8-chloro-11-(4-piperonyl)-1-piperazinyl)dibenzo[b,f][1,4]thiazepine]",better D4 affinity and selectivity than the corresponding 4-methyl piperazine compound
4,"Cc1ccc2c(c1)N=C(N1CCN(Cc3ccc4c(c3)OCO4)CC1)c1ccccc1O2 [8-methyl-11-(4-piperonyl)-1-piperazinyl)dibenz[b,f][1,4]oxazepine]",better D4 affinity and selectivity than the corresponding 4-methyl piperazine compound
5,"Cc1cc2c(cc1C)Nc1ccccc1C(N1CCN(Cc3ccc4c(c3)OCO4)CC1)=N2 [7,8-dimethyl-11-(4-piperonyl)-1-piperazinyl)-5H-dibenzo[b,f][1,4]diazepine]",better D4 affinity and selectivity than the corresponding 4-methyl piperazine compound

# Same assay, conditions: human D4 receptor; 3H-spiperone 0.25 nM
row,Ki [nM],SMILES
1,63,"c1ccc2c(c1)N=C(N1CCN(Cc3ccc4c(c3)OCO4)CC1)c1ccccc1N2 [11-(4-piperonyl)-1-piperazinyl-5H-dibenzo[b,e][1,4]diazepine]"
2,15,"COc1ccc2c(c1)C(N1CCN(Cc3ccc4c(c3)OCO4)CC1)=Nc1ccccc1N2 [2-methoxy-11-(4-piperonyl-1-piperazinyl)-5H-dibenzo[b,e][1,4]diazepine]"
3,24,"Clc1ccc2c(c1)N=C(N1CCN(Cc3ccc4c(c3)OCO4)CC1)c1ccccc1S2 [8-chloro-11-(4-piperonyl)-1-piperazinyl)dibenzo[b,f][1,4]thiazepine]"
4,57,"Clc1cccc2c1Oc1ccccc1N=C2N1CCN(Cc2ccc3c(c2)OCO3)CC1 [4-chloro-11-(4-piperonyl-1-piperazinyl)dibenz[b,f][1,4]oxazepine]"
5,143,"Cc1ccc2c(c1)N=C(N1CCN(Cc3ccc4c(c3)OCO4)CC1)c1ccccc1O2 [8-methyl-11-(4-piperonyl)-1-piperazinyl)dibenz[b,f][1,4]oxazepine]"
6,266,"Cc1cc2c(cc1C)Nc1ccccc1C(N1CCN(Cc3ccc4c(c3)OCO4)CC1)=N2 [7,8-dimethyl-11-(4-piperonyl)-1-piperazinyl)-5H-dibenzo[b,f][1,4]diazepine]"
7,15.3,"O=[N+]([O-])c1ccc2c(c1)C=C(N1CCN(Cc3ccc4c(c3)OCO4)CC1)c1ccccc1S2 [2-nitro-10-(4-piperonyl-1-piperazinyl)dibenzo[b,f]thiepine]"

# Target: T2, human D2 receptor (short isoform) (Homo sapiens, UniProt P14416)
# T2 construct: membrane homogenate, 3H-spiperone displacement
# T2 sequence (P14416 with tags, fused parts or gaps DEL242-270): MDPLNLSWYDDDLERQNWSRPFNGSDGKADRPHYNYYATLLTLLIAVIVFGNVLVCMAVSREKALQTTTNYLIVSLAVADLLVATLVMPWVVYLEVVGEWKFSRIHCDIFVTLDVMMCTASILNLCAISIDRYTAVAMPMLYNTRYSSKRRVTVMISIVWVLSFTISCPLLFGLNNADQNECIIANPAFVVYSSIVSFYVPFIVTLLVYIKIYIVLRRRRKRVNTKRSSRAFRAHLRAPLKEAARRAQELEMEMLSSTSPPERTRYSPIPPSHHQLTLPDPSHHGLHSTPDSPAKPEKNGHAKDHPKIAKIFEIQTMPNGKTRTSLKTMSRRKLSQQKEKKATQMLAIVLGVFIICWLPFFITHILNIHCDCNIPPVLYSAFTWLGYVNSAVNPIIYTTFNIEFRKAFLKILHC
# Assay: D2 receptor binding, displacement of 3H-spiperone (GH4C1 cells), for D2/D4 selectivity
# Conditions: D4 selectivity, ratio D2/D4
# Description: as §1
# GH4 C1 (rat pituitary) cells stably transfected with the human D2 receptor (short isoform) were grown in CO2 independent media in roller bottles (1500 cm^2) for 10 days. 100 μM ZnSO4 was added to the cells (the D2 promoter being zinc inducible). After 16 hours, fresh media was added to allow the cells to recover for 24 hours. The cells were harvested using versene and then centrifuged in a Sorval centrifuge for 10 minutes, at 5000 rpm (GS3 rotor). Pellets were quickly frozen in liquid nitrogen and stored at -80° C. until used in the binding assays. When used in the assay, cells were thawed on ice for 20 minutes. […] 10 mL of incubation buffer was added to the pellets which were then vortexed, resuspended and homogenized with a Kinematica CH-6010 Kriens-LU homogenizer for 15 seconds at setting 7. The receptor protein concentration was determined using the Pierce BCA assay.
# as §2
# as §3, with “The incubation was started by the addition of 500 μl (50 μg protein) membrane homogenate to a solution of 900 μl incubation buffer and 100 μl (0.25 nM final conc.) ^3 H-spiperone (90 Ci/mmol Amersham diluted in borosilicate glass vial) in 12×75 mm polypropylene tubes. The tubes” for “The tubes”
# Non-Specific Binding Assay for D2
# This assay employed the same procedures as the non-specific binding assay for D4 with the exception that 2 μM (final conc.) of (-) sulpiride (Research Chemicals Inc.) was used in place of dopamine.
# as §4, §5
# Specific binding in the absence of test compound (BO) was the difference of total binding (BT) minus non-specific binding (NSB) and similarly specific binding (in the presence of test compound) (B) was the difference of displacement binding (BD) minus non-specific binding (NSB). IC50 was determined from an inhibition response curve, logit-log plot of %B/BO vs concentration of test compound.
# as §6, §7
row,D2/D4,SMILES
1,6,"c1ccc2c(c1)N=C(N1CCN(Cc3ccc4c(c3)OCO4)CC1)c1ccccc1N2 [11-(4-piperonyl)-1-piperazinyl-5H-dibenzo[b,e][1,4]diazepine]"
2,5.1,"COc1ccc2c(c1)C(N1CCN(Cc3ccc4c(c3)OCO4)CC1)=Nc1ccccc1N2 [2-methoxy-11-(4-piperonyl-1-piperazinyl)-5H-dibenzo[b,e][1,4]diazepine]"
3,63,"Clc1ccc2c(c1)N=C(N1CCN(Cc3ccc4c(c3)OCO4)CC1)c1ccccc1S2 [8-chloro-11-(4-piperonyl)-1-piperazinyl)dibenzo[b,f][1,4]thiazepine]"
4,99.2,"Clc1cccc2c1Oc1ccccc1N=C2N1CCN(Cc2ccc3c(c2)OCO3)CC1 [4-chloro-11-(4-piperonyl-1-piperazinyl)dibenz[b,f][1,4]oxazepine]"
5,9.8,"Cc1ccc2c(c1)N=C(N1CCN(Cc3ccc4c(c3)OCO4)CC1)c1ccccc1O2 [8-methyl-11-(4-piperonyl)-1-piperazinyl)dibenz[b,f][1,4]oxazepine]"
6,14.1,"Cc1cc2c(cc1C)Nc1ccccc1C(N1CCN(Cc3ccc4c(c3)OCO4)CC1)=N2 [7,8-dimethyl-11-(4-piperonyl)-1-piperazinyl)-5H-dibenzo[b,f][1,4]diazepine]"
7,281,"O=[N+]([O-])c1ccc2c(c1)C=C(N1CCN(Cc3ccc4c(c3)OCO4)CC1)c1ccccc1S2 [2-nitro-10-(4-piperonyl-1-piperazinyl)dibenzo[b,f]thiepine]"

# Same assay, conditions: compared with clozapine
row,D4 selectivity,SMILES
1,better D4 selectivity than clozapine,"Clc1ccc2c(c1)N=C(N1CCN(Cc3ccc4c(c3)OCO4)CC1)c1ccccc1S2 [8-chloro-11-(4-piperonyl)-1-piperazinyl)dibenzo[b,f][1,4]thiazepine]"
2,better D4 selectivity than clozapine,"Clc1cccc2c1Oc1ccccc1N=C2N1CCN(Cc2ccc3c(c2)OCO3)CC1 [4-chloro-11-(4-piperonyl-1-piperazinyl)dibenz[b,f][1,4]oxazepine]"
3,better D4 selectivity than clozapine,"Cc1cc2c(cc1C)Nc1ccccc1C(N1CCN(Cc3ccc4c(c3)OCO4)CC1)=N2 [7,8-dimethyl-11-(4-piperonyl)-1-piperazinyl)-5H-dibenzo[b,f][1,4]diazepine]"
4,better D4 selectivity than clozapine,"O=[N+]([O-])c1ccc2c(c1)C=C(N1CCN(Cc3ccc4c(c3)OCO4)CC1)c1ccccc1S2 [2-nitro-10-(4-piperonyl-1-piperazinyl)dibenzo[b,f]thiepine]"

# Same assay, conditions: compared with corresponding 4-methyl piperazine compound
row,SMILES,D4 selectivity
1,"c1ccc2c(c1)N=C(N1CCN(Cc3ccc4c(c3)OCO4)CC1)c1ccccc1N2 [11-(4-piperonyl)-1-piperazinyl-5H-dibenzo[b,e][1,4]diazepine]",better D4selectivity than the corresponding 4-methyl piperazine compound
2,"COc1ccc2c(c1)C(N1CCN(Cc3ccc4c(c3)OCO4)CC1)=Nc1ccccc1N2 [2-methoxy-11-(4-piperonyl-1-piperazinyl)-5H-dibenzo[b,e][1,4]diazepine]",better D4selectivity than the corresponding 4-methyl piperazine compound
3,"Clc1ccc2c(c1)N=C(N1CCN(Cc3ccc4c(c3)OCO4)CC1)c1ccccc1S2 [8-chloro-11-(4-piperonyl)-1-piperazinyl)dibenzo[b,f][1,4]thiazepine]",better D4selectivity than the corresponding 4-methyl piperazine compound
4,"Cc1ccc2c(c1)N=C(N1CCN(Cc3ccc4c(c3)OCO4)CC1)c1ccccc1O2 [8-methyl-11-(4-piperonyl)-1-piperazinyl)dibenz[b,f][1,4]oxazepine]",better D4selectivity than the corresponding 4-methyl piperazine compound
5,"Cc1cc2c(cc1C)Nc1ccccc1C(N1CCN(Cc3ccc4c(c3)OCO4)CC1)=N2 [7,8-dimethyl-11-(4-piperonyl)-1-piperazinyl)-5H-dibenzo[b,f][1,4]diazepine]",better D4selectivity than the corresponding 4-methyl piperazine compound
6,"O=[N+]([O-])c1ccc2c(c1)C=C(N1CCN(Cc3ccc4c(c3)OCO4)CC1)c1ccccc1S2 [2-nitro-10-(4-piperonyl-1-piperazinyl)dibenzo[b,f]thiepine]",better D4selectivity than the corresponding 4-methyl piperazine compound
